Biological target: SMYD2 (Homo sapiens (Human), UniProt Q9NRG4)
Experiment: SMYD2 TR-FRET inhibition assay (p53 peptide + SAM, SAH detection)
Type: biochemical
Details: SMYD2 enzyme, p53 peptide and SAM substrates, overnight at room temperature; Tb chelate mAb/OG-SAH probe detection; read-out: TRFRET IC50
Method: 5 microliters of a 2×SMYD2 enzyme solution (20 nM, […] in assay buffer) were added to each well. To the control wells was also added 5 microliters of assay buffer. […] The wells were incubated at room temperature for 30 minutes.
Into the wells of the counter screen plate was added 5 microliters 2×SAH (300 nM, S-adenosyl homocysteine (SAH)), except the control wells.
Into all wells was added 5 microliters of 2×SAM. The plates were covered and incubated overnight at room temperature. […] Analysis of the wells was by the Laser Lentha Low Volume Envision Protocol (emission wavelength of 520 nm; laser excitation wavelength of 337 nm).

SMYD2, sequence (Q9NRG4 whole entry): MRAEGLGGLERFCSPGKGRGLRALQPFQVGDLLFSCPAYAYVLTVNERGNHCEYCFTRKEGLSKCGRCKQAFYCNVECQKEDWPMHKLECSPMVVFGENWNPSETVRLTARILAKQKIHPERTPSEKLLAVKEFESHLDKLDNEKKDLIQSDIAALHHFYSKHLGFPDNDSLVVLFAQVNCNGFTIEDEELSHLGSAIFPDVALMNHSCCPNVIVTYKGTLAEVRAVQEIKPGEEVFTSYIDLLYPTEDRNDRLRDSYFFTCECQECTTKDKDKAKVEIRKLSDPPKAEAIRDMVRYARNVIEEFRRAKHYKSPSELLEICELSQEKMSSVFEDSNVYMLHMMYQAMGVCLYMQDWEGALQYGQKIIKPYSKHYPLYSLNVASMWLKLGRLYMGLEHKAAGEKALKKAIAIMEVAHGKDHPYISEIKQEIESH

| SMILES | IC50 |
| --- | --- |
| O=C1COc2c(cccc2C(O)CNCCN(C(=O)CCNCCc2ccc(Cl)c(Cl)c2)C2CCCCC2)N1 (racemic) [Example 1, N-cyclohexyl-3-((3,4-dichlorophenethyl)amino)-N-(2-((2-hydroxy-2-(3-oxo-3,4-dihydro-2H-benzo[b][1,4]oxazin-8-yl)ethyl)amino)ethyl)-propanamide] | 0.065 µM |
| O=C1COc2c(cccc2[C@H](O)CNCCN(C(=O)CCNCCc2ccc(Cl)c(Cl)c2)C2CCCCC2)N1 [Example 1a, (S)-N-cyclohexyl-3-((3,4-dichlorophenethyl)amino)-N-(2-((2-hydroxy-2-(3-oxo-3,4-dihydro-2H-benzo[b][1,4]oxazin-8-yl)ethyl)amino)-ethyl)-propanamide] | 0.023 µM |
| O=C1COc2c(cccc2[C@@H](O)CNCCN(C(=O)CCNCCc2ccc(Cl)c(Cl)c2)C2CCCCC2)N1 [Example 1b, (R)-N-cyclohexyl-3-((3,4-dichlorophenethyl)amino)-N-(2-((2-hydroxy-2-(3-oxo-3,4-dihydro-2H-benzo[b][1,4]oxazin-8-yl)ethyl)amino)-ethyl)-propanamide] | 0.138 µM |
| O=C1COc2c(CCNCCN(C(=O)CCNCc3ccc(Cl)c(Cl)c3)C3CCCCC3)ccc(O)c2N1 [Example 2] | 2.03 µM |
| O=C1COc2c(CCNCCN(C(=O)CCNCCc3ccccc3)C3CCCC3)ccc(O)c2N1 [Example 3, N-cyclopentyl-N-(2-((2-(5-hydroxy-3-oxo-3,4-dihydro-2H-benzo[b][1,4]oxazin-8-yl)ethyl)amino)ethyl)-3-(phenethylamino)-propanamide] | 3.74 µM |
| O=C1COc2c(CCNCCN(C(=O)CCNCCc3ccc(Cl)c(Cl)c3)C3CCCC3)ccc(O)c2N1 [Example 4, N-cyclopentyl-3-((3,4-dichlorophenethyl)amino)-N-(2-((2-(5-hydroxy-3-oxo-3,4-dihydro-2H-benzo[b][1,4]oxazin-8-yl)ethyl)amino)-ethyl)-propanamide] | 10 µM |
| O=C(CCNCCc1ccc(Cl)c(Cl)c1)N(CCNCCCN1CCCCC1)C1CCCCC1 [Example 5, N-cyclohexyl-3-((3,4-dichlorophenethyl)amino)-N-(2-((3-(piperidin-1-yl)propyl)amino)ethyl)propanamide] | 11.2 µM |
| O=C(CCNCCc1ccc(Cl)c(Cl)c1)N(CCNCCN1CCCC1)C1CCCCC1 [Example 6, N-cyclohexyl-3-((3,4-dichlorophenethyl)amino)-N-(2-((2-(pyrrolidin-1-yl)ethyl)amino)ethyl)propanamide] | 12.1 µM |
| CC(NCCc1ccc(Cl)c(Cl)c1)C(=O)N(CCNCc1ccc(C#N)cc1)C1CCCCC1 (stereo not drawn) [Example 7, N-(2-((4-cyanobenzyl)amino)ethyl)-N-cyclohexyl-((3,4-dichlorophenethyl)amino)propanamide] | 16 µM |
| CC1CNc2c(CC(C)(C)C)c(NCCN(C(=O)CCNCCc3ccc(Cl)c(Cl)c3)C3CCCCC3)nn2C1 (stereo not drawn) [Example 8, N-cyclohexyl-3-((3,4-dichlorophenethyl)amino)-N-(2-((6-methyl-3-neopentyl-4,5,6,7-tetrahydropyrazolo[1,5-a]pyrimidin-2-yl)-amino)ethyl)-propanamide] | 32.8 µM |
| O=C(CCNCCc1ccccc1)N(CCN1CC[C@H]1COc1cccnc1)C1CCCCC1 [Example 9, (S)-N-cyclohexyl-3-(phenethylamino)-N-(2-(2-((pyridin-3-yloxy)methyl)azetidin-1-yl)ethyl)propanamide] | > 50 µM |
| COCCC(=O)N(CCNCCc1ccc(O)c2c1OCC(=O)N2)C1CCCCC1 [Example 10, N-cyclohexyl-N-(2-((2-(5-hydroxy-3-oxo-3,4-dihydro-2H-benzo[b][1,4]oxazin-8-yl)ethyl)amino)ethyl)-3-methoxypropanamide] | > 50 µM |
| O=C1COc2c(CCNCCN(C(=O)CCNCCc3ccccc3)C3CCCCC3)ccc(O)c2N1 [Example 11, N-cyclohexyl-N-(2-((2-(5-hydroxy-3-oxo-3,4-dihydro-2H-benzo[b][1,4]oxazin-8-yl)ethyl)amino)ethyl)-3-(phenethylamino)-propanamide] | > 50 µM |
| O=C(CCNCCc1ccc(Cl)c(Cl)c1)N(CCN1CCN(c2cccc3c2CCN3)CC1)C1CCCCC1 [Example 12, N-cyclohexyl-3-((3,4-dichlorophenethyl)amino)-N-(2-(4-(indolin-4-yl)piperazin-1-yl)ethyl)propanamide] | 9.83 µM |
| O=C(CCNCCc1ccc(Cl)c(Cl)c1)N(CCNCCCN1CCCC1)C1CCCCC1 [Example 13, N-cyclohexyl-3-((3,4-dichlorophenethyl)amino)-N-(2-((3-(pyrrolidin-1-yl)propyl)amino)ethyl)propanamide] | 7.42 µM |
| O=C1COc2c(CCNCCN(C(=O)CCNCCc3ccccc3)C3CCC3)ccc(O)c2N1 [Example 14, N-cyclobutyl-N-(2-((2-(5-hydroxy-3-oxo-3,4-dihydro-2H-benzo[b][1,4]oxazin-8-yl)ethyl)amino)ethyl)-3-(phenethylamino)-propanamide] | > 50 µM |
| O=C1COc2c(CCNCCN(C(=O)CCNCCc3ccc(Cl)c(Cl)c3)C3CCC3)ccc(O)c2N1 [Example 15, N-cyclobutyl-3-((3,4-dichlorophenethyl)amino)-N-(2-((2-(5-hydroxy-3-oxo-3,4-dihydro-2H-benzo[b][1,4]oxazin-8-yl)ethyl)amino)-ethyl)-propanamide] | 3.79 µM |
| Cc1cn2ccccc2c1CCNCCN(C(=O)CCNCCc1cccc(Cl)c1Cl)C1CCCCC1 [Example 16, N-cyclohexyl-3-((2,3-dichlorophenethyl)amino)-N-(2-((2-(2-methylindolizin-1-yl)ethyl)amino)ethyl)propanamide] | 3.44 µM |

From patent US9598381B2, “SMYD2 inhibitors” (AbbVie Inc., priority 2014, dated 2017)
